According to patent US20230027066A1 (Urovant Sciences GmbH, priority 2019, published 2023):

Test system: men and women with overactive bladder
Test: Phase 3 study of vibegron 75 mg vs placebo and tolterodine ER 4 mg, 12 weeks, efficacy (voiding and urine volume diary)
Type: in vivo, human
Details: for Patients with at Least 75% Reduction in Total Incontinence, Adjusted (%) / Patients with at Least 75% Reduction in Total Incontinence, Adjusted n / Patients with at Least 75% Reduction in Total Incontinence, Unadjusted (%) / Patients with at Least 75% Reduction in Total Incontinence, Unadjusted n / Total Incontinence 75% responders, Active - Placebo CMH Difference: FAS-I
Description: Enrollment of patients included individuals with OAB Wet (those with UUI, the involuntary loss of urine accompanied by urgency) and OAB Dry (those without UUI). A total of 1,518 patients were randomized across 215 study sites into one of three groups for a 12-week treatment period.
The study consisted of a Screening Period (1 to 5 weeks), a single-blind Run-in Period (2 weeks), a randomized double-blind Treatment Period (12 weeks), and a Follow-up Period (4 weeks).
Tolterodine ER 4 mg was the active control. […] Between the Baseline and Week 12 Visits, patients had study assessments at Week 4 and Week 8.
The Patient Voiding Diary was used by participants (via the eDiary or paper Diary) to record the frequency of daily OAB symptoms including all micturitions, urgency, incontinence, and main reason for incontinence by selecting the respective box for each symptom occurring during the course of a given day and night.
Urine volume data were collected separately by patients using the Urine Volume component of the eDiary, or the paper Urine Volume Chart. The Urine Volume Chart is a tool used in clinical practice and clinical investigation to assess voiding functions over a 24-hour period and is regarded as a useful instrument in the investigation of patients with voiding symptoms. Urine volume may be collected during any one (1) of the 7 Diary Days prior to the visit, and it should be recorded for ˜24 hours starting from the time the patient gets up for the day and continues until the time the patient gets up for the day on the next day.
For the purpose of this study, the number of micturitions was defined as the number of times a patient has voided in the toilet as indicated on the Patient Voiding Diary. Average daily micturitions were calculated using the daily entries in the Patient Voiding Diary, which was completed over the 7 days prior to each study visit. Average daily number of micturitions were calculated as the total number of micturitions that occurred on a Complete Diary Day divided by the number of Complete Diary Days in the Patient Voiding Diary. A complete diary day required confirmation by the patient in the Patient Voiding Diary that all voids and leakages had been recorded for the diary day. Baseline was defined as the average number of micturitions occurring during the last evaluable diary prior to the Baseline Visit.
The number of UUI episodes was defined as the number of times a patient had checked “urge” as the reason for accidental urine leakage. Average daily UUI episodes at each study visit were calculated in the same manner as described above for the micturition endpoint. The UUI endpoint were analyzed using only OAB Wet patients.
For the analysis of the co-primary endpoints (change from baseline in average number of daily micturitions at Week 12 and change from baseline in average number of daily urge urinary incontinence episodes at Week 12, and placebo adjustment of each), a mixed model for repeated measure (MMRM) with restricted maximum likelihood estimation was used. This model corrects for dropout and accounts for the fact that measurements taken on the same patient over time tend to be correlated by using all available information on patients within the same covariate set to derive an estimate of the treatment effect for a dropout-free population. The analysis model for each efficacy endpoint includes terms for treatment, visit, OAB Type (Wet vs Dry), Sex (Female vs Male), Region (US vs Rest of World), baseline score, and interaction of visit by treatment.
Primary inferences were drawn from treatment differences for the changes from baseline derived from the MMRM models at Week 12. As part of secondary objectives, the treatment differences for each post baseline visit were also derived using the same MMRM model. […]

[1] = Week 12, events of Events/Censored
[2] = Week 12, subpopulation Age ≥65 years
[3] = vibegron 75 mg or tolterodine ER 4 mg
[4] = vibegron 75 mg or tolterodine ER 4 mg once daily
[5] = vibegron 75 mg or tolterodine ER 4 mg once daily, OAB Wet
[6] = vibegron 75 mg or tolterodine ER 4 mg, OAB Wet

Structure (SMILES): Cc1ccc(O)c([C@H](CCN(C(C)C)C(C)C)c2ccccc2)c1 [Tolterodine ER, tolterodine, reference compound]
- Micturitions, Week 12 LS Mean Change from Baseline (Placebo-Adjusted) (Week 12, co-primary endpoint): −0.3
- UUI Episodes, Week 12 LS Mean Change from Baseline (Placebo-Adjusted) (Week 12, co-primary endpoint): −0.4
- First 50% Reduction in Urgency Episodes, Events [1]: 164/253
- First 100% Reduction in UUI Episodes, Events [1]: 74/245
- Total Incontinence Episodes, Week 12 LS Mean Change from Baseline (Placebo-Adjusted) (Week 12, secondary endpoint): −0.5
- Urgency Episodes, Week 12 LS Mean Change from Baseline (Placebo-Adjusted) (Week 12, secondary endpoint): −0.4
- Micturitions, change at Week 12, mean (SD) [2]: −1.48 (2.15)
- UUI Episodes, change at Week 12, mean (SD) [2]: −1.80 (2.41)
- Daily Urgency, change at Week 12 (Week 12, subpopulation Age ≥65 years, posthoc analysis): −2.1
- Micturitions: Week 12 CFB Mean (descriptive statistics) (Week 12, ≥65 yrs): −1.48
- Patients with at Least 75% Reduction in Total Incontinence, Adjusted (%) (baseline to Week 2): 16.5%
- Patients with at Least 75% Reduction in Total Incontinence, Adjusted n (baseline to Week 2): 53
- Patients with at Least 75% Reduction in Total Incontinence, Unadjusted (%) (baseline to Week 2): 18.2%
- Patients with at Least 75% Reduction in Total Incontinence, Unadjusted n (baseline to Week 2): 58
- Total Incontinence 75% responders, Active - Placebo CMH Difference (baseline to Week 2): 3.6
- Patients with at Least 75% Reduction in Total Incontinence, Adjusted (%) (baseline to Week 4): 23.5%
- Patients with at Least 75% Reduction in Total Incontinence, Adjusted n (baseline to Week 4): 75
- Patients with at Least 75% Reduction in Total Incontinence, Unadjusted (%) (baseline to Week 4): 28.2%
- Patients with at Least 75% Reduction in Total Incontinence, Unadjusted n (baseline to Week 4): 90
- Total Incontinence 75% responders, Active - Placebo CMH Difference (baseline to Week 4): 3.7
- Patients with at Least 75% Reduction in Total Incontinence, Adjusted (%) (baseline to Week 8): 32.5%
- Patients with at Least 75% Reduction in Total Incontinence, Adjusted n (baseline to Week 8): 104
- Patients with at Least 75% Reduction in Total Incontinence, Unadjusted (%) (baseline to Week 8): 36.4%
- Patients with at Least 75% Reduction in Total Incontinence, Unadjusted n (baseline to Week 8): 116
- Total Incontinence 75% responders, Active - Placebo CMH Difference (baseline to Week 8): 5.1
- Patients with at Least 75% Reduction in Total Incontinence, Adjusted (%) (baseline to Week 12): 39.9%
- Patients with at Least 75% Reduction in Total Incontinence, Adjusted n (baseline to Week 12): 127
- Patients with at Least 75% Reduction in Total Incontinence, Unadjusted (%) (baseline to Week 12): 45.1%
- Patients with at Least 75% Reduction in Total Incontinence, Unadjusted n (baseline to Week 12): 144
- Total Incontinence 75% responders, Active - Placebo CMH Difference (baseline to Week 12): 8.4
- UUI, Week 12 LS mean change from baseline (placebo adjusted) (95% CI) (subgroup Age <65 years, vibegron 75 mg or tolterodine ER 4 mg): −0.2 (−0.6 to 0.2)
- UUI, Week 12 LS mean change from baseline (placebo adjusted) (95% CI) (subgroup Age ≥65 years, vibegron 75 mg or tolterodine ER 4 mg): −0.6 (−1.1 to −0.1)
- UUI, Week 12 LS mean change from baseline (placebo adjusted) (95% CI) (subgroup Age ≥75 years (posthoc analysis), vibegron 75 mg or tolterodine ER 4 mg): −1.6 (−2.5 to −0.7)
- UUI, Week 12 LS mean change from baseline (placebo adjusted) (95% CI) (subgroup Females, vibegron 75 mg or tolterodine ER 4 mg): −0.4 (−0.7 to −0.1)
- UUI, Week 12 LS mean change from baseline (placebo adjusted) (95% CI) (subgroup Males, vibegron 75 mg or tolterodine ER 4 mg): −0.5 (−1.4 to 0.4)
- UUI, Week 12 LS mean change from baseline (placebo adjusted) (95% CI) (subgroup Non-White, vibegron 75 mg or tolterodine ER 4 mg): 0.1 (−0.6 to 0.7)
- UUI, Week 12 LS mean change from baseline (placebo adjusted) (95% CI) (subgroup Region: Non-US, vibegron 75 mg or tolterodine ER 4 mg): −0.6 (−1.5 to 0.2)
- UUI, Week 12 LS mean change from baseline (placebo adjusted) (95% CI) (subgroup Region: US, vibegron 75 mg or tolterodine ER 4 mg): −0.3 (−0.7 to 0.0)
- UUI, Week 12 LS mean change from baseline (placebo adjusted) (95% CI) (subgroup White, vibegron 75 mg or tolterodine ER 4 mg): −0.5 (−0.8 to −0.2)
- average volume voided, placebo-adjusted mean change from baseline, week 12 [3]: 13.3 mL
- placebo-adjusted mean total daily incontinence episodes, week 12 [3]: −0.5 episodes
- proportion of patients (UUI responders) with 75% or more reduction in daily UUI episodes, week 12 [3]: 42.2%
- Micturitions, active-placebo LS mean difference, Week 2 [4]: −0.3
- Micturitions, active-placebo LS mean difference, Week 4 [4]: −0.4
- Micturitions, active-placebo LS mean difference, Week 8 [4]: −0.4
- Micturitions, active-placebo LS mean difference, Week 12 [4]: −0.3
- Micturitions, average daily number, Week 2 mean [4]: 10.40
- Micturitions, average daily number, Week 4 mean [4]: 10.10
- Micturitions, average daily number, Week 8 mean [4]: 9.80
- Micturitions, average daily number, Week 12 mean [4]: 9.58
- Micturitions, change from baseline LS mean, Week 2 [4]: −0.6
- Micturitions, change from baseline LS mean, Week 4 [4]: −0.9
- Micturitions, change from baseline LS mean, Week 8 [4]: −1.2
- Micturitions, change from baseline LS mean, Week 12 [4]: −1.6
- UUI episodes, active-placebo LS mean difference, Week 2 [5]: −0.4
- UUI episodes, active-placebo LS mean difference, Week 4 [5]: −0.4
- UUI episodes, active-placebo LS mean difference, Week 8 [5]: −0.4
- UUI episodes, average daily number, Week 2 mean [5]: 2.24
- UUI episodes, average daily number, Week 4 mean [5]: 2.06
- UUI episodes, average daily number, Week 8 mean [5]: 1.74
- UUI episodes, average daily number, Week 12 mean [5]: 1.55
- UUI episodes, change from baseline LS mean, Week 2 [5]: −1.2
- UUI episodes, change from baseline LS mean, Week 4 [5]: −1.4
- UUI episodes, change from baseline LS mean, Week 8 [5]: −1.6
- UUI episodes, change from baseline LS mean, Week 12 [5]: −1.8
- Time to first 75% reduction in UUI episodes, hazard ratio compared to placebo (proportional hazards) (vibegron 75 mg or tolterodine ER 4 mg, Cox model with sex as covariate): 1.276
- Estimated incidence of subjects with 75% decrease from baseline in UUI episodes, Week 2 [6]: 18.8
- Estimated incidence of subjects with 75% decrease from baseline in UUI episodes, Week 4 [6]: 20.7
- Estimated incidence of subjects with 75% decrease from baseline in UUI episodes, Week 8 [6]: 34.3
- Estimated incidence of subjects with 75% decrease from baseline in UUI episodes, Week 12 [6]: 45.7
- First 75% reduction in UUI episodes, Events/Censored, Week 2 [6]: 60/259
- First 75% reduction in UUI episodes, Events/Censored, Week 4 [6]: 66/253
- First 75% reduction in UUI episodes, Events/Censored, Week 8 [6]: 107/212
- First 75% reduction in UUI episodes, Events/Censored, Week 12 [6]: 140/179
- Overall time to first 75% decrease in UUI episodes, 25th percentile [6]: 4.1 weeks
- Overall time to first 75% decrease in UUI episodes, 75th percentile [6]: 14.2 weeks
- Overall time to first 75% decrease in UUI episodes, median (95% CI) [6]: 12.1 (8.6 to 12.3) weeks
- Time to first 75% decrease in UUI episodes, Events/Censored (overall) [6]: 166/153
